Measured values reported in the supplement of paper PMC10307832.

Assays:
Experiment in all cases: relative viability (nuclei count vs DMSO), 5 days (fraction); higher = more cells survive
Tosedostat + Alpelisib = compound: CC(C)C[C@@H](C(=O)N[C@H](C(=O)OC1CCCC1)c1ccccc1)[C@H](O)C(=O)NO [Tosedostat] + Cc1nc(NC(=O)N2CCC[C@H]2C(N)=O)sc1-c1ccnc(C(C)(C)C(F)(F)F)c1 [Alpelisib] (partner 2 µM)
How it was run: (§1)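 Dosing by pin tool came one day after lung cancer cell lines were seeded in 1536-well plates, using either one drug or a fixed anchor-drug dose plus five library-drug doses (not always all listed) in √10 steps. After 5 days, nuclei were counted on 4× images. Relative viability is treated-well nuclei count divided by vehicle-well nuclei count, and values are medians of duplicate plates.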

[1] = compound: CC1=NN=C(O1)C2=NN=C(C=C2)N3CCC(CC3)OC4=C(C=CC(=C4)F)Cl + COc1cc2c(Oc3ccc(NC(=O)C4(C(=O)Nc5ccc(F)cc5)CC4)cc3F)ccnc2cc1OCCCN1CCOCC1 [Foretinib] (partner 0.25 µM)
How it was run: as §1

[2] = compound: CC1=NN=C(O1)C2=NN=C(C=C2)N3CCC(CC3)OC4=C(C=CC(=C4)F)Cl + N=C(N)NC(=N)NCCc1ccccc1 [Phenformin] (partner 250 µM)
How it was run: as §1

Tosedostat + Dasatinib = compound: CC(C)C[C@@H](C(=O)N[C@H](C(=O)OC1CCCC1)c1ccccc1)[C@H](O)C(=O)NO [Tosedostat] + Cc1nc(Nc2ncc(C(=O)Nc3c(C)cccc3Cl)s2)cc(N2CCN(CCO)CC2)n1 [Dasatinib] (partner 0.075 µM)
How it was run: as §1

Cell Line | relative viability (Tosedostat + Alpelisib; first compound 0.02 µM) | relative viability (Tosedostat + Alpelisib; first compound 0.06325 µM) | relative viability (Tosedostat + Alpelisib; first compound 0.2 µM) | relative viability (Tosedostat + Alpelisib; first compound 0.6325 µM) | relative viability (Tosedostat + Alpelisib; first compound 2 µM) | relative viability ([1]; first compound 0.253 µM) | relative viability ([1]; first compound 0.8 µM) | relative viability ([1]; first compound 2.53 µM) | relative viability ([1]; first compound 8 µM) | relative viability ([2]; first compound 0.253 µM) | relative viability ([2]; first compound 0.8 µM) | relative viability ([2]; first compound 2.53 µM) | relative viability ([2]; first compound 8 µM) | relative viability (Tosedostat + Dasatinib; first compound 0.02 µM) | relative viability (Tosedostat + Dasatinib; first compound 0.06325 µM) | relative viability (Tosedostat + Dasatinib; first compound 0.2 µM) | relative viability (Tosedostat + Dasatinib; first compound 0.6325 µM) | relative viability (Tosedostat + Dasatinib; first compound 2 µM)
NCI-H1915 | 1.1 | 1.05 | 1.04 | 1.07 | 0.907 | 0.685 | 0.532 | 0.531 | 0.402 | 0.377 | 0.287 | 0.332 | 0.243 | 0.321 | 0.348 | 0.306 | 0.277 | 0.215
NCI-H1944 | 0.929 | 0.811 | 0.817 | 0.742 | 0.818 | 0.464 | 0.463 | 0.473 | 0.498 | 0.183 | 0.187 | 0.196 | 0.183 | 0.226 | 0.211 | 0.215 | 0.208 | 0.194
NCI-H1975 | 0.658 | 0.602 | 0.537 | 0.473 | 0.495 |  | 0.929 | 0.834 | 0.757 |  | 0.33 | 0.421 | 0.387 | 0.369 | 0.358 | 0.35 | 0.268 | 0.34
NCI-H1993 | 0.61 | 0.688 | 0.843 | 0.561 | 0.588 | 0.664 | 0.682 | 0.709 | 0.7 | 0.553 | 0.481 | 0.651 | 0.509 | 0.471 | 0.561 | 0.502 | 0.519 | 0.505
NCI-H2009 | 1.24 | 1.14 | 1.12 | 1.05 | 0.955 | 0.711 | 0.667 | 0.644 | 0.636 | 0.456 | 0.418 | 0.424 | 0.378 | 0.279 | 0.334 | 0.226 | 0.267 | 0.24
NCI-H2023 | 0.571 | 0.558 | 0.675 | 0.421 | 0.483 | 0.594 | 0.613 | 0.64 | 0.619 | 0.401 | 0.362 | 0.387 | 0.324 | 0.585 | 0.571 | 0.552 | 0.518 | 0.505
NCI-H2085 | 0.904 | 1.02 | 1.06 | 0.936 | 0.887 | 0.808 |  | 0.744 | 0.698 | 0.676 |  | 0.629 | 0.565 | 0.205 | 0.234 | 0.256 | 0.276 | 0.307
NCI-H2087 | 1.21 | 1.08 | 1.21 | 0.876 | 0.91 | 0.593 | 0.641 | 0.626 | 0.489 | 0.425 | 0.267 | 0.387 | 0.341 | 1.17 | 0.936 | 0.908 | 0.688 | 0.869
NCI-H2126 | 0.664 | 0.744 | 0.757 | 0.774 | 0.661 | 0.982 | 0.932 | 0.958 | 0.985 | 0.486 | 0.507 | 0.53 | 0.528 | 0.611 | 0.662 | 0.636 | 0.63 | 0.558
NCI-H2170 | 0.742 | 0.829 | 0.835 | 0.777 | 0.862 | 0.466 | 0.575 | 0.583 | 0.432 | 0.336 | 0.291 | 0.355 | 0.323 | 0.575 | 0.514 | 0.558 | 0.63 | 0.451
NCI-H2228 | 0.971 | 0.748 | 0.743 | 0.677 | 0.661 | 0.723 | 0.66 | 0.845 | 0.632 | 0.313 | 0.257 | 0.294 | 0.401 | 0.51 | 0.497 | 0.494 | 0.344 | 0.338
NCI-H2347 | 1.14 | 0.971 | 1.01 | 1.02 | 1.03 | 0.904 | 0.931 | 0.707 | 0.824 |  | 0.382 | 0.493 | 0.359 | 0.269 | 0.353 | 0.291 | 0.311 | 0.26
NCI-H2405 | 0.78 | 0.804 | 0.829 | 0.787 | 0.76 | 0.582 | 0.564 | 0.546 | 0.555 | 0.406 | 0.383 | 0.37 | 0.328 | 0.221 | 0.266 | 0.218 | 0.211 | 0.164
NCI-H3122 | 0.861 | 0.809 | 0.844 | 0.774 | 0.997 | 0.431 | 0.409 | 0.438 | 0.397 | 0.324 | 0.282 | 0.253 | 0.275 | 0.745 | 0.912 | 0.925 | 0.915 | 0.711
PC-3 [JPC-3] | 1.03 | 1.03 | 1.06 | 0.924 | 0.727 | 0.774 | 0.923 | 0.874 | 0.855 | 0.433 | 0.406 | 0.426 | 0.412 | 0.999 | 1.06 | 0.929 | 0.621 | 0.7
PC-14 | 0.806 | 0.903 | 0.956 | 0.899 | 0.786 | 0.806 | 0.779 | 0.768 | 0.759 | 0.656 |  | 0.463 | 0.567 | 0.245 | 0.237 | 0.263 | 0.192 | 0.208
RERF-LC-KJ | 0.677 | 0.955 | 0.777 | 0.742 | 0.57 | 0.617 | 0.533 | 0.544 | 0.519 | 0.389 | 0.434 | 0.466 | 0.392 | 0.873 | 0.77 | 0.771 | 0.623 | 0.511
SK-LU-1 | 1.19 | 0.981 | 0.772 | 0.842 | 0.491 | 0.698 |  | 0.696 | 0.557 | 0.584 |  | 0.534 | 0.475 | 0.184 | 0.191 | 0.219 | 0.197 | 0.203
